Experimental data taken from paper PMC4965013, “Open Source Drug Discovery with the Malaria Box Compound Collection for Neglected Diseases and Beyond” (PLoS Pathogens, 2016).
Like-named read-outs stand apart in the source and are kept apart here. Each block holds one compound with its values, some of them ahead of it.

Key:
[1] = tested on: P. falciparum 3D7 trophozoites; assay: Metabolomic fingerprint profiling LC-MS; type: cell-based, Plasmodium falciparum; set-up: UDP-D-glucose / ADP-D-glucose: unit not given here; settings: for Acetyllysine / N-acetyl-L-ornithine / N-carbamoyl-L-aspartate / NADPH / dAMP / dCMP / dTDP / dTMP / dTTP / dihydroorotate / orotate / DLH / DLS/SDL/SID / PD / PEE / PVNF / 3-phosphoglycerate / ADP-D-glucose / ATP / CDP / D-sedoheptulose-1/7-phosphate / FAD / GMP / NAD+ / NADP+ / Octoluse Bisphosphate / Pyroglutamic acid / UDP-D-glucose / UDP-D-glucuronate / UDP-N-acetyl-glucosamine / UDP / UMP / UTP / a-ketoglutarate / citrate/isocitrate / cytidine / dATP / dGMP/AMP / fumarate / glucose-1/6-phosphate / glycerate / guanine / guanosine / hypoxanthine / indole / inosine / nicotinate / ornithine / phosphoenolpyruvate / pyruvate / ribose-phosphate / sarcosine/alanine / sn-glycerol-3-phosphate / succinate/methylmalonic acid / uridine / xanthosine: S2 Table Metabolomics; for Acetyllysine: metabolite Acetyllysine; for N-acetyl-L-ornithine: metabolite N-acetyl-L-ornithine; for N-carbamoyl-L-aspartate: metabolite N-carbamoyl-L-aspartate; for NADPH: metabolite NADPH; for dAMP: metabolite dAMP; for dCMP: metabolite dCMP; for dTDP: metabolite dTDP; for dTMP: metabolite dTMP; for dTTP: metabolite dTTP; for dihydroorotate: metabolite dihydroorotate; for orotate: metabolite orotate; for DLH: peptide DLH; for DLS/SDL/SID: peptide DLS/SDL/SID; for PD: peptide PD; for PEE: peptide PEE; for PVNF: peptide PVNF; for 3-phosphoglycerate: metabolite 3-phosphoglycerate; for ADP-D-glucose: metabolite ADP-D-glucose; for ATP: metabolite ATP; for CDP: metabolite CDP; for CDP / D-sedoheptulose-1/7-phosphate / GMP / Octoluse Bisphosphate / UDP / UMP / UTP / citrate/isocitrate / dGMP/AMP / fumarate / glucose-1/6-phosphate / glycerate / guanine / guanosine / inosine / pyruvate / sarcosine/alanine / succinate/methylmalonic acid / uridine / xanthosine: change in metabolite level after compound treatment; for D-sedoheptulose-1/7-phosphate: metabolite D-sedoheptulose-1/7-phosphate; for FAD: metabolite FAD; for GMP: metabolite GMP; for NAD+: metabolite NAD+; for NADP+: metabolite NADP+; for Octoluse Bisphosphate: metabolite Octoluse Bisphosphate; for Pyroglutamic acid: metabolite Pyroglutamic acid; for UDP-D-glucose: metabolite UDP-D-glucose; for UDP-D-glucuronate: metabolite UDP-D-glucuronate; for UDP-N-acetyl-glucosamine: metabolite UDP-N-acetyl-glucosamine; for UDP: metabolite UDP; for UMP: metabolite UMP; for UTP: metabolite UTP; for a-ketoglutarate: metabolite a-ketoglutarate; for citrate/isocitrate: metabolite citrate/isocitrate; for cytidine: metabolite cytidine; for dATP: metabolite dATP; for dGMP/AMP: metabolite dGMP/AMP; for fumarate: metabolite fumarate; for glucose-1/6-phosphate: metabolite glucose-1/6-phosphate; for glycerate: metabolite glycerate; for guanine: metabolite guanine; for guanosine: metabolite guanosine; for hypoxanthine: metabolite hypoxanthine; for indole: metabolite indole; for inosine: metabolite inosine; for 2_3-Diphosphoglyceric acid / 4-phosphopantothenate / 6-phospho-D-gluconate / FMN / IMP / Pyrophosphate / Sedoheptoluse bisphosphate / cyclic-AMP / glutathione disulfide / lactate / myo-inositol: metabolite level change after treatment; for nicotinate: metabolite nicotinate; for ornithine: metabolite ornithine; for phosphoenolpyruvate: metabolite phosphoenolpyruvate; for pyruvate: metabolite pyruvate; for ribose-phosphate: metabolite ribose-phosphate; for sarcosine/alanine: metabolite sarcosine/alanine; for sn-glycerol-3-phosphate: metabolite sn-glycerol-3-phosphate; for succinate/methylmalonic acid: metabolite succinate/methylmalonic acid; for uridine: metabolite uridine; for xanthosine: metabolite xanthosine
P. falciparum 3D7 = assay: [3H]-hypoxanthine growth inhibition, modified HCO3- or O2; type: cell-based; settings: for IC50: Plasmodium falciparum
P. falciparum = assay: EC50 listed in S2 Table Metabolomics (used to set the concentration tested); type: cell-based; settings: Plasmodium falciparum; EC50 used for Factor_XEC50 in metabolomics; read-out: EC50_nM
[2] = 3D7, read-out: P. falciparum 3D7 IC50 1% O2, 1% O2 hypoxia
[3] = 3D7, read-out: P. falciparum 3D7 IC50 5% O2

EC50 (P. falciparum): 205 nM
Structure (SMILES): CCOC(=O)c1cn(CC)c2cc(N(C)CCc3ccc(OC)c(OC)c3)c(F)cc2c1=O [MMV665977]
Acetyllysine [1]: -0.2007 | N-acetyl-L-ornithine [1]: 0.023 | N-carbamoyl-L-aspartate [1]: 3.959 | NADPH [1]: -0.01115 | dAMP [1]: 0.7523 | dCMP [1]: 0.5464 | dTDP [1]: 0.1785 | dTMP [1]: 0.2344 | dTTP [1]: -0.3388 | dihydroorotate [1]: 4.609 | orotate [1]: -0.8094 | DLH [1]: -0.4948 | DLS/SDL/SID [1]: -0.3029 | PD [1]: 0.1633 | PEE [1]: -0.1468 | PVNF [1]: -0.5192 | 3-phosphoglycerate [1]: -0.3617 | ADP-D-glucose [1]: 0.08874 | ATP [1]: -0.1759 | CDP [1]: 0.4208 | D-sedoheptulose-1/7-phosphate [1]: 0.7585 | FAD [1]: 0.2291 | GMP [1]: -0.3238 | NAD+ [1]: 0.1079 | NADP+ [1]: 0.05477 | Octoluse Bisphosphate [1]: -0.07826 | Pyroglutamic acid [1]: -0.2687 | UDP-D-glucose [1]: 0.1563 | UDP-D-glucuronate [1]: 0.07018 | UDP-N-acetyl-glucosamine [1]: 0.07391 | UDP [1]: 0.2133 | UMP [1]: -0.8829 | UTP [1]: -1.518 | a-ketoglutarate [1]: -0.594 | citrate/isocitrate [1]: -0.7044 | cytidine [1]: 0.327 | dATP [1]: 0.6974 | dGMP/AMP [1]: -0.4295 | fumarate [1]: 0.007291 | glucose-1/6-phosphate [1]: 0.2816 | glycerate [1]: -0.4808 | guanine [1]: 0.3502 | guanosine [1]: 0.225 | hypoxanthine [1]: -0.2655 | indole [1]: -0.1099 | inosine [1]: 0.2015 | 2_3-Diphosphoglyceric acid [1]: 0.344 | 4-phosphopantothenate [1]: -0.03263 | 6-phospho-D-gluconate [1]: 0.2163 | FMN [1]: 0.1874 | IMP [1]: 0.1512 | Pyrophosphate [1]: 0.2053 | Sedoheptoluse bisphosphate [1]: 0.01379 | cyclic-AMP [1]: 0.02919 | glutathione disulfide [1]: 0.2163 | lactate [1]: -0.4098 | myo-inositol [1]: -0.567 | nicotinate [1]: -0.4053 | ornithine [1]: 0.1382 | phosphoenolpyruvate [1]: -0.3385 | pyruvate [1]: -0.6681 | ribose-phosphate [1]: -0.2449 | sarcosine/alanine [1]: 0.1312 | sn-glycerol-3-phosphate [1]: 0.2048 | succinate/methylmalonic acid [1]: -0.4008 | uridine [1]: -0.5319 | xanthosine [1]: -0.3168 | fold change (IC50normal/ IC50hypoxia) (P. falciparum 3D7): 4.1 | IC50 (P. falciparum 3D7; [2]): 85 nM | IC50 (P. falciparum 3D7; [3]): 345 nM

EC50 (P. falciparum): 448 nM
Structure (SMILES): COc1ccc(-c2nc(NC(=O)CS(=O)(=O)c3ccc(F)cc3)sc2C)cc1 [MMV665915]
Acetyllysine [1]: -0.1771 | N-acetyl-L-ornithine [1]: -0.3059 | N-carbamoyl-L-aspartate [1]: 0.053 | NADPH [1]: 0.1215 | dAMP [1]: -0.4653 | dCMP [1]: -0.2866 | dTDP [1]: 0.07665 | dTMP [1]: 0.08902 | dTTP [1]: -0.1721 | dihydroorotate [1]: -0.4672 | orotate [1]: -0.4189 | DLH [1]: 0.071 | DLS/SDL/SID [1]: -0.2498 | PD [1]: -0.3229 | PEE [1]: -0.02112 | PVNF [1]: 0.02436 | 3-phosphoglycerate [1]: -0.875 | ADP-D-glucose [1]: -0.2338 | ATP [1]: -0.08026 | CDP [1]: 0.2353 | D-sedoheptulose-1/7-phosphate [1]: 0.2732 | FAD [1]: -0.2366 | GMP [1]: -0.6644 | NAD+ [1]: -0.2604 | NADP+ [1]: -0.1454 | Octoluse Bisphosphate [1]: -0.3427 | Pyroglutamic acid [1]: 0.2622 | UDP-D-glucose [1]: -0.2684 | UDP-D-glucuronate [1]: -0.1851 | UDP-N-acetyl-glucosamine [1]: -0.3241 | UDP [1]: 0.1227 | UMP [1]: -0.7313 | UTP [1]: -0.06326 | a-ketoglutarate [1]: -0.1843 | citrate/isocitrate [1]: 0.1306 | cytidine [1]: -0.25 | dATP [1]: -0.1264 | dGMP/AMP [1]: -0.5258 | fumarate [1]: -0.3392 | glucose-1/6-phosphate [1]: -0.6162 | glycerate [1]: -0.5026 | guanine [1]: -0.3726 | guanosine [1]: -0.4353 | hypoxanthine [1]: 0.151 | indole [1]: 0.2601 | inosine [1]: -0.1084 | 2_3-Diphosphoglyceric acid [1]: -0.3692 | 4-phosphopantothenate [1]: -0.3105 | 6-phospho-D-gluconate [1]: -0.535 | FMN [1]: -0.2195 | IMP [1]: -0.3295 | Pyrophosphate [1]: -0.0001746 | Sedoheptoluse bisphosphate [1]: -0.2854 | cyclic-AMP [1]: -0.3638 | glutathione disulfide [1]: -0.4248 | lactate [1]: -0.1885 | myo-inositol [1]: -0.6665 | nicotinate [1]: -0.4616 | ornithine [1]: -0.3065 | phosphoenolpyruvate [1]: -0.5464 | pyruvate [1]: -0.3441 | ribose-phosphate [1]: -0.3706 | sarcosine/alanine [1]: -0.5111 | sn-glycerol-3-phosphate [1]: -0.2801 | succinate/methylmalonic acid [1]: -0.2666 | uridine [1]: -0.2088 | xanthosine [1]: -0.3176 | fold change (IC50reduced/IC50normal) (P. falciparum 3D7): 2.4 | IC50 (P. falciparum 3D7; 3D7, read-out: P. falciparum 3D7 IC50 HCO3- (2g/L), standard media): 192 nM | IC50 (P. falciparum 3D7; 3D7, HCO3- reduced media, read-out: P. falciparum 3D7 IC50 HCO3- reduced): 464 nM

EC50 (P. falciparum): 212 nM
Structure (SMILES): Cc1cc(Nc2ccc(Cl)cc2)n2nc(C(F)(F)F)nc2n1 [MMV011256]
Acetyllysine [1]: -0.5963 | N-acetyl-L-ornithine [1]: -0.507 | N-carbamoyl-L-aspartate [1]: 4.681 | NADPH [1]: 1.178 | dAMP [1]: -1.417 | dCMP [1]: 0.2248 | dTDP [1]: -0.9712 | dTMP [1]: -0.998 | dTTP [1]: -0.8663 | dihydroorotate [1]: 5.399 | orotate [1]: -0.2345 | DLH [1]: -0.3185 | DLS/SDL/SID [1]: -0.4128 | PD [1]: 0.2516 | PEE [1]: -0.4695 | PVNF [1]: -1.475 | 3-phosphoglycerate [1]: 0.08815 | ADP-D-glucose [1]: 0.5309 | ATP [1]: -0.05125 | CDP [1]: -0.6896 | D-sedoheptulose-1/7-phosphate [1]: 0.1853 | FAD [1]: 0.084 | GMP [1]: 0.2583 | NAD+ [1]: 0.00935 | NADP+ [1]: 0.5726 | Octoluse Bisphosphate [1]: 0.02106 | Pyroglutamic acid [1]: -0.3979 | UDP-D-glucose [1]: 0.01111 | UDP-D-glucuronate [1]: -0.02444 | UDP-N-acetyl-glucosamine [1]: -0.1642 | UDP [1]: -0.997 | UMP [1]: -0.7924 | UTP [1]: -1.308 | a-ketoglutarate [1]: -0.5125 | citrate/isocitrate [1]: -0.4219 | cytidine [1]: -0.1943 | dATP [1]: 0.3626 | dGMP/AMP [1]: 0.01292 | fumarate [1]: -0.2283 | glucose-1/6-phosphate [1]: -0.259 | glycerate [1]: -0.6701 | guanine [1]: 0.06677 | guanosine [1]: 0.3651 | hypoxanthine [1]: -0.6973 | indole [1]: -0.3061 | inosine [1]: -0.4425 | 2_3-Diphosphoglyceric acid [1]: 0.2246 | 4-phosphopantothenate [1]: -0.3914 | 6-phospho-D-gluconate [1]: 0.1976 | FMN [1]: -0.1065 | IMP [1]: 0.1475 | Pyrophosphate [1]: 0.2465 | Sedoheptoluse bisphosphate [1]: 0.08943 | cyclic-AMP [1]: -0.1063 | glutathione disulfide [1]: 0.192 | lactate [1]: -0.653 | myo-inositol [1]: -1.111 | nicotinate [1]: -0.2929 | ornithine [1]: 0.09761 | phosphoenolpyruvate [1]: 0.0459 | pyruvate [1]: -0.6078 | ribose-phosphate [1]: -0.1179 | sarcosine/alanine [1]: 0.2817 | sn-glycerol-3-phosphate [1]: -0.0008256 | succinate/methylmalonic acid [1]: 0.03166 | uridine [1]: -0.902 | xanthosine [1]: 0.002012 | fold change (IC50normal/ IC50hypoxia) (P. falciparum 3D7): 5.0 | IC50 (P. falciparum 3D7; [2]): 70 nM | IC50 (P. falciparum 3D7; [3]): 349 nM
